Data from patent US9840507B2, “5,6-dihydro-imidazo[1,2-a]pyrazin-8-ylamine derivatives useful as inhibitors of beta-secretase (BACE)” (Janssen Pharmaceutica, NV, priority 2010, dated 2017).

Experiments:
brain levels of total Aβ = assay: In vivo efficacy: brain Aβtotal lowering (ELISA); set-up: species or system mouse; conditions: 30 mpk
Source text: (§1) To determine whether acute administration of an Aβ42 peptide lowering agent would reduce Aβ peptide levels in vivo, non-transgenic rodents, e.g. mice or rats were used. Animals treated with the Aβ peptide lowering agent were examined and compared to those untreated or treated with vehicle and brain levels of soluble Aβ42 and total Aβ were quantitated by standard techniques, for example, using ELISA. Treatment periods varied from hours (h) to days and were adjusted based on the results of the Aβ42 lowering once a time course of onset of effect could be established.
(§2) A typical protocol for measuring Aβ42 lowering in vivo is shown but it is only one of many variations that could be used to optimize the levels of detectable Aβ. For example, Aβpeptide lowering compounds were formulated in 20% hydroxypropyl β cyclodextrin. The Aβ peptide lowering agents were administered as a single oral dose (p.o.) or a single subcutaneous dose (s.c.) to overnight fasted animals. After a certain time, usually 2 or 4 h (as indicated in Table 19), the animals were sacrificed and Aβ42 levels were analysed.
(§3) Blood was collected by decapitation and exsanguinations in EDTA-treated collection tubes. Blood was centrifuged at 1900 g for 10 minutes (min) at 4° C. and the plasma recovered and flash frozen for later analysis. The brain was removed from the cranium and hindbrain. The cerebellum was removed and the left and right hemisphere were separated. The left hemisphere was stored at −18° C. for quantitative analysis of test compound levels. The right hemisphere was rinsed with phosphate-buffered saline (PBS) buffer and immediately frozen on dry ice and stored at −80° C. until homogenization for biochemical assays.
(§4) Mouse brains from non-transgenic animals were resuspended in 8 volumes of 0.4% DEA (diethylamine)/50 mM NaCl containing protease inhibitors (Roche-11873580001 or 04693159001) per gram of tissue, e.g. for 0.158 g brain, add 1.264 ml of 0.4% DEA. All samples were homogenized in the FastPrep-24 system (MP Biomedicals) using lysing matrix D (MPBio #6913-100) at 6 m/s for 20 seconds. Homogenates were centrifuged at 221.300×g for 50 min. The resulting high speed supernatants were then transferred to fresh eppendorf tubes. Nine parts of supernatant were neutralized with 1 part 0.5 M Tris-HCl pH 6.8 and used to quantify Aβtotal and Aβ42.
(§5) To quantify the amount of Aβtotal and Aβ42 in the soluble fraction of the brain homogenates, Enzyme-Linked-Immunosorbent-Assays were used. Briefly, the standards (a dilution of synthetic Aβ1-40 and Aβ1-42, Bachem) were prepared in 1.5 ml Eppendorf tube in Ultraculture, with final concentrations ranging from 10000 to 0.3 pg/ml. The samples and standards were co-incubated with HRPO-labelled N-terminal antibody for Aβ42 detection and with the biotinylated mid-domain antibody 4G8 for Aβtotal detection. 50 μl of conjugate/sample or conjugate/standards mixtures were then added to the antibody-coated plate (the capture antibodies selectively recognize the C-terminal end of Aβ42, antibody JRF/cAβ42/26, for Aβ42 detection and the N-terminus of Aβ, antibody JRF/rAβ/2, for Aβtotal detection). The plate was allowed to incubate overnight at 4° C. in order to allow formation of the antibody-amyloid complex. Following this incubation and subsequent wash steps the ELISA for Aβ42 quantification was finished by addition of Quanta Blu fluorogenic peroxidase substrate according to the manufacturer's instructions (Pierce Corp., Rockford, Il). A reading was performed after 10 to 15 min (excitation 320 nm/emission 420 nm).
For Aβtotal detection, a Streptavidine-Peroxidase-Conjugate was added, followed 60 min later by an additional wash step and addition of Quanta Blu fluorogenic peroxidase substrate according to the manufacturer's instructions (Pierce Corp., Rockford, Il). A reading was performed after 10 to 15 min (excitation 320 nm/emission 420 nm).

[1] = test system: brain levels of soluble Aβ42; assay: In vivo efficacy: brain Aβ42 lowering (ELISA); set-up: species or system mouse; conditions: 30 mpk
Source text: as §1, §2, §3, §4, §5
In this model at least 20% Aβ42 lowering compared to untreated animals would be advantageous.

[2] = target: T1, recombinant BACE1 protein (Homo sapiens, UniProt P56817); assay: Biochemical FRET based assay; conditions: recombinant BACE1 1 μg/ml, 10 μm substrate, 120 minutes, room temperature, pH 5.0; read-out: Biochemical FRET based assay pIC50 (converted)
T1 construct: recombinant BACE1 protein in a final concentration of 1 μg/ml
T1 sequence (P56817 46-501): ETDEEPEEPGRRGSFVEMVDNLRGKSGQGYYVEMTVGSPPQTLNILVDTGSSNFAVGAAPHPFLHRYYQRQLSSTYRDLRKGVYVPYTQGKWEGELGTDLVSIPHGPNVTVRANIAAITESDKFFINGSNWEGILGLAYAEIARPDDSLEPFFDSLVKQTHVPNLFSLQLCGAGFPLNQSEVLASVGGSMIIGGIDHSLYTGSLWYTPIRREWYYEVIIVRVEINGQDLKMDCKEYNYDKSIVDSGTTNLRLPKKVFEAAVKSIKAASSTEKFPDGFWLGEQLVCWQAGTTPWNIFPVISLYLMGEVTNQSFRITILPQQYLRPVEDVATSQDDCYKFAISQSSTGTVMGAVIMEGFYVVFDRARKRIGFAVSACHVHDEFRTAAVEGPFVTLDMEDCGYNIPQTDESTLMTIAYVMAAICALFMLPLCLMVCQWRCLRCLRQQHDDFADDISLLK
Source text: This assay is a Fluorescence Resonance Energy Transfer Assay (FRET) based assay. The substrate for this assay is an APP derived 13 amino acids peptide that contains the ‘Swedish’ Lys-Met/Asn-Leu mutation of the amyloid precursor protein (APP) β-secretase cleavage site. This substrate also contains two fluorophores: (7-methoxycoumarin-4-yl) acetic acid (Mca) is a fluorescent donor with excitation wavelength at 320 nm and emission at 405 nm and 2,4-Dinitrophenyl (Dnp) is a proprietary quencher acceptor. […] Upon cleavage by BACE1, the fluorophore Mca is separated from the quenching group Dnp, restoring the full fluorescence yield of the donor. The increase in fluorescence is linearly related to the rate of proteolysis (Koike H et al. J. Biochem. 1999, 126, 235-242).
Briefly in a 384-well format recombinant BACE1 protein in a final concentration of 1 μg/ml is incubated for 120 minutes at room temperature with 10 μm substrate in incubation buffer (40 mM Citrate buffer pH 5.0, 0.04% PEG, 4% DMSO) in the absence or presence of compound. Next the amount of proteolysis is directly measured by fluorescence measurement at T=0 and T=120 (excitation at 320 nm and emission at 405 nm).
(§6) LC=Median of the low control values
=Low control: Reaction without enzyme
(§7) HC=Median of the High control values
=High Control: Reaction with enzyme % Effect=100−[(sample−LC)/(HC−LC)*100] % Control=(sample/HC)*100% % Controlmin=(sample−LC)/(HC−LC)*100

[3] = test system: Aβtotal produced and secreted into the medium of human neuroblastoma SKNBE2 cells; assay: Cellular αlisa assay in SKNBE2 cells, Aβtotal; assay type: cell-based; conditions: SKNBE2 cells expressing hAPP695, incubated for 18 hours; for IC50: Homo sapiens, SKNBE2, 18 h, read-out: Cellular αlisa assay in SKNBE2 cells Aβtotal pIC50 (converted)
Experimental: (§8) In two αlisa assays the levels of Aβtotal and Aβ42 produced and secreted into the medium of human neuroblastoma SKNBE2 cells are quantified. The assay is based on the human neuroblastoma SKNBE2 expressing the wild type Amyloid Precursor Protein (hAPP695). The compounds are diluted and added to these cells, incubated for 18 hours and then measurements of Aβ42 and Aβtotal are taken. Aβtotal and Aβ42 are measured by sandwich αlisa. αlisa is a sandwich assay using biotinylated antibody AbN/25 attached to streptavidin coated beads and antibody Ab4G8 or cAb42/26 conjugated acceptor beads for the detection of Aβtotal and Aβ42 respectively. In the presence of Aβtotal or Aβ42, the beads come into close proximity. The excitation of the Donor beads provokes the release of singlet oxygen molecules that triggers a cascade of energy transfer in the Acceptor beads, resulting in light emission. Light emission is measured after 1 hour incubation (excitation at […] and emission at 615 nm).
(§9) A best-fit curve is fitted by a minimum sum of squares method to the plot of % Controlmin versus compound concentration.
as §6
(§10) =Low control: cells preincubated without compound, without biotinylated Ab in the αlisa
as §7
(§11) =High Control: cells preincubated without compound % Effect=100−[(sample−LC)/(HC−LC)*100] % Control=(sample/HC)*100% % Controlmin=(sample−LC)/(HC−LC)*100

[4] = test system: Aβ42 produced and secreted into the medium of human neuroblastoma SKNBE2 cells; assay: Cellular αlisa assay in SKNBE2 cells, Aβ42; assay type: cell-based; conditions: SKNBE2 cells expressing hAPP695, incubated for 18 hours; for IC50: Homo sapiens, SKNBE2, 18 h, read-out: Cellular αlisa assay in SKNBE2 cells Aβ42 pIC50 (converted)
Experimental: as §8, §9, §6, §10, §7, §11

SMILES | Aβtotal (% Ctrl)_Mean (brain levels of total Aβ; s.c., 2 h after administration) [% Ctrl] | Aβ42 (% Ctrl)_Mean ([1]; s.c., 2 h after administration) [% Ctrl] | IC50 [2] [nM] | IC50 [3] [nM] | IC50 [4] [nM] | Aβtotal (% Ctrl)_Mean (brain levels of total Aβ; p.o., 2 h after administration) [% Ctrl] | Aβ42 (% Ctrl)_Mean ([1]; p.o., 2 h after administration) [% Ctrl] | Aβtotal (% Ctrl)_Mean (brain levels of total Aβ; s.c., 4 h after administration) [% Ctrl] | Aβ42 (% Ctrl)_Mean ([1]; s.c., 4 h after administration) [% Ctrl] | Cellular αlisa assay in SKNBE2 cells Aβtotal pIC50 [3] | Cellular αlisa assay in SKNBE2 cells Aβ42 pIC50 [4]
CC1(c2cc(NC(=O)c3ccc(F)cn3)ccc2F)Cn2ccnc2C(N)=N1 (single isomer, unassigned) [Compound 10] | 53 | 45 | 214 | 50.1 | 58.9 | – | – | – | – | – | –
C[C@@]1(c2cc(NC(=O)c3ncc(C#N)cc3Cl)ccc2F)Cn2ccnc2C(N)=N1 [Compound 21] | 7 | 33 | 49 | 9.55 | 9.33 | – | – | – | – | – | –
COc1cnc(C(=O)Nc2ccc(F)c(C3(C)Cn4ccnc4C(N)=N3)c2)cn1 (single isomer, unassigned) [Compound 9] | 49 | 57 | 148 | 31.6 | 35.5 | 63 | 40 | – | – | – | –
C[C@@]1(c2cc(NC(=O)c3ccc(F)cn3)ccc2F)Cn2cc(C(F)(F)F)nc2C(N)=N1 [Compound 24] | – | – | 132 | 33.9 | 38.9 | – | – | 67 | 50 | – | –
C[C@@]1(c2cc(NC(=O)c3ccc(C#N)cn3)ccc2F)Cn2ccnc2C(N)=N1 [Compound 18] | – | – | – | 5.62 | 6.31 | 52 | 38 | – | – | – | –
CCOc1cnc(C(=O)Nc2ccc(F)c([C@]3(C)Cn4ccnc4C(N)=N3)c2)cn1 [Compound 23] | – | – | 457 | 37.2 | 25.1 | – | – | – | – | – | –
C[C@@]1(c2cc(NC(=O)c3ncc(Cl)cc3Cl)ccc2F)Cn2cc(C(F)(F)F)nc2C(N)=N1 [Compound 25] | – | – | 46.8 | 17 | 21.9 | – | – | – | – | – | –
NC1=NC(c2cc(NC(=O)c3ccc(F)cn3)ccc2F)(C(F)F)Cn2ccnc21 (centres unmarked) [Compound 29] | – | – | > 30200 | – | – | – | – | – | – | <5 | <5
CC1(c2cc(-c3cncnc3)c(F)cc2F)Cn2ccnc2C(N)=N1 (single isomer, unassigned) [Compound 11] | – | – | 16600 | 1950 | 2340 | – | – | – | – | – | –
NC1=NC(c2cc(NC(=O)c3ncc(Cl)cc3F)ccc2F)(C(F)F)Cn2ccnc21 (centres unmarked) [Compound 33] | – | – | 224 | 275 | 355 | – | – | – | – | – | –
COc1cnc(C(=O)Nc2ccc(F)c([C@]3(C)Cn4c(Cl)cnc4C(N)=N3)c2)cn1 [Compound 57] | – | – | 66.1 | 14.8 | 13.5 | – | – | – | – | – | –
CC1(c2cccc(NC(=O)c3ccc(Cl)cn3)c2)Cn2ccnc2C(N)=N1 (racemic) [Compound 6, rac-5-chloro-pyridine-2-carboxylic acid [3-(8-amino-6-methyl-5,6-dihydro-imidazo[1,2-a]pyrazin-6-yl)-phenyl]-amide] | – | – | 331 | 69.2 | 70.8 | – | – | – | – | – | –
